Measurements published in paper PMC11290694 (Science (New York, N.Y.), 2024).
Where two headings read alike, the source gives them in different places.

What was measured:
PiB = assay: UV-visible absorption titration, single-site global fit; format: binding, synthetic construct
PiB′ = assay: as above; format: binding, synthetic construct

Kd (PiB) [nM]	Kd (PiB′; PDB 8TNB is labelled mefuparib-bound PiB in b31 but PiB′ in b20 and b22) [nM]	Kd (PiB′) [nM]	SMILES
190	350		CNCc1ccc(-c2cc3cc(F)cc(C(N)=O)c3o2)cc1 [mefuparib]
600		550	NC(=O)c1cccc2cn(-c3ccc([C@@H]4CCCNC4)cc3)nc12 [niraparib]
